Assay results published in patent publication US11638706B2, “Methods for treating Huntington's disease” (PTC Therapeutics, Inc., priority 2015, dated 2023).
pIC50: −log10 of the molar value.

Tested on: Huntingtin protein (HTT)
Test: Endogenous Huntingtin Protein Assay (MSD electrochemiluminescence ELISA; MW1 or MAB2166 capture, #5656S detection)
Type: cell-based, human
Protocol: The Endogenous Huntingtin Protein assay used in Example 2 was developed using the Best Pair antibodies identified in Table 2, providing highly sensitive, high-throughput detection assays for polyglutamine-expanded (mHTT) and total human HTT in multiple cell systems. The platform used for the assay is the ELISA-based Meso Scale Discovery (MSD) electrochemiluminescence assay platform.
Meso Scale Discovery (MSD) 96-well or 384-well plates were coated overnight at 4° C. with MW1 (expanded polyglutamine) or MAB2166 monoclonal antibody (for capture) at a concentration of 1 μg/mL in PBS (30 μL per well). Plates were then washed three times with 300 μL wash buffer (0.05% Tween-20 in PBS) and blocked (100 μL blocking buffer; 5% BSA in PBS) for 4-5 hours at room temperature with rotational shaking and then washed three times with wash buffer.
Samples (25 μL) were transferred to the antibody-coated MSD plate and incubated overnight at 4° C. After removal of the lysates, the plate was washed three times with wash buffer, and 25 μL of #5656S (Cell signaling; rabbit monoclonal) secondary antibody (diluted to 0.25 μg/mL in 0.05% Tween-20 in blocking buffer) was added to each well and incubated with shaking for 1 Hour at room temperature. Following incubation with the secondary antibody, the wells were rinsed with wash buffer after which 25 μL of goat anti-rabbit SULFO TAG secondary detection antibody (required aspect of the MSD system) (diluted to 0.25 μg/mL in 0.05% Tween-20 in blocking buffer) was added to each well and incubated with shaking for 1 hour at room temperature. After rinsing three times with wash buffer, 150 μL of read buffer T with surfactant (MSD) were added to each empty well, and the plate was imaged on a SI 6000 imager (MSD) according to manufacturers' instructions provided for 96- or 384-well plates.

Compound	pIC50
Oc1cc(-c2cn[nH]c2)ccc1-c1ccc(C2=CCNCC2)nn1 [Cpd 424, 5-(1H-pyrazol-4-yl)-2-[6-(1,2,3,6-tetrahydropyridin-4-yl)pyridazin-3-yl]phenol]	6.30 to 7.00
CCN1CC=C(c2ccc(-c3ccc(-c4cn[nH]c4)cc3O)nn2)CC1 [Cpd 425, 2-[6-(1-ethyl-1,2,3,6-tetrahydropyridin-4-yl)pyridazin-3-yl]-5-(1H-pyrazol-4-yl)phenol]	6.30 to 7.00
CN(c1ccc(-c2ccc(-c3cn[nH]c3)cc2O)nn1)C1CCNCC1 [Cpd 426, 2-{6-[methyl(piperidin-4-yl)amino]pyridazin-3-yl}-5-(1H-pyrazol-4-yl)phenol]	6.30 to 7.00
Oc1cc(-c2cn[nH]c2)ccc1-c1ccc(NC2CCNCC2)nn1 [Cpd 427, 2-[6-(piperidin-4-ylamino)pyridazin-3-yl]-5-(1H-pyrazol-4-yl)phenol]	6.30 to 7.00
CN(c1ccc(-c2cc(F)c(-c3cn[nH]c3)cc2F)nn1)C1CC(C)(C)NC(C)(C)C1 [Cpd 428, 6-[2,5-difluoro-4-(1H-pyrazol-4-yl)phenyl]-N-methyl-N-(2,2,6,6-tetramethylpiperidin-4-yl)pyridazin-3-amine]	6.30 to 7.00
Oc1cc(-c2cn[nH]c2)ccc1-c1ccc(C2=CC3CCC(C2)N3)nn1 (stereo not drawn) [Cpd 429, 2-[6-(8-azabicyclo[3.2.1]oct-2-en-3-yl)pyridazin-3-yl]-5-(1H-pyrazol-4-yl)phenol]	6.30 to 7.00
CN(c1ccc(-c2ccc(-c3cn[nH]c3)c(F)c2F)nn1)C1CC(C)(C)NC(C)(C)C1 [Cpd 430, 6-[2,3-difluoro-4-(1H-pyrazol-4-yl)phenyl]-N-methyl-N-(2,2,6,6-tetramethylpiperidin-4-yl)pyridazin-3-amine]	6.30 to 7.00
Oc1cc(-c2cn[nH]c2)ccc1-c1ccc(OC2CCNCC2)nn1 [Cpd 432, 2-[6-(piperidin-4-yloxy)pyridazin-3-yl]-5-(1H-pyrazol-4-yl)phenol]	6.30 to 7.00
Oc1cc(-c2cn[nH]c2)ccc1-c1ccc(NC2C[C@H]3CC[C@@H](C2)N3)nn1 (stereo partly drawn) [Cpd 433, 2-{6-[(1R,5S)-8-azabicyclo[3.2.1]oct-3-ylamino]pyridazin-3-yl}-5-(1H-pyrazol-4-yl)phenol]	6.30 to 7.00
COc1nc(-c2cn[nH]c2)ccc1-c1ccc(N(C)C2CC(C)(C)NC(C)(C)C2)nn1 [Cpd 434, 6-[2-methoxy-6-(1H-pyrazol-4-yl)pyridin-3-yl]-N-methyl-N-(2,2,6,6-tetramethylpiperidin-4-yl)pyridazin-3-amine]	6.00 to 6.30
Oc1cc(-c2cn[nH]c2)ccc1-c1ccc(N2CC3(CCNCC3)C2)nn1 [Cpd 439, 2-[6-(2,7-diazaspiro[3.5]non-2-yl)pyridazin-3-yl]-5-(1H-pyrazol-4-yl)phenol]	5.52 to 6.00
CN(c1ccc(-c2ccc(O)cc2F)nn1)C1CC(C)(C)NC(C)(C)C1 [Cpd 440, 3-fluoro-4-{6-[methyl(2,2,6,6-tetramethylpiperidin-4-yl)amino]pyridazin-3-yl}phenol]	5.05 to 5.52
CN(c1ccc(-c2ccc3nn(C)cc3c2)nn1)C1CC(C)(C)NC(C)(C)C1 [Cpd 442, N-methyl-6-(2-methyl-2H-indazol-5-yl)-N-(2,2,6,6-tetramethylpiperidin-4-yl)pyridazin-3-amine]	5.05 to 5.52
Cc1nn2ccccc2c1-c1ccc(N(C)C2CC(C)(C)NC(C)(C)C2)nn1 [Cpd 445, N-methyl-6-(2-methylpyrazolo[1,5-a]pyridin-3-yl)-N-(2,2,6,6-tetramethylpiperidin-4-yl)pyridazin-3-amine]	5.05 to 5.52
CN(c1ccc(-c2ccc(-c3cn[nH]c3)cc2F)nn1)C1CC(C)(C)NC(C)(C)C1 [Cpd 452, 6-[2-fluoro-4-(1H-pyrazol-4-yl)phenyl]-N-methyl-N-(2,2,6,6-tetramethylpiperidin-4-yl)pyridazin-3-amine]	5.05 to 5.52
CN(c1ccc(-c2ccc(-c3cn[nH]c3)cc2Cl)nn1)C1CC(C)(C)NC(C)(C)C1 [Cpd 456, 6-[2-chloro-4-(1H-pyrazol-4-yl)phenyl]-N-methyl-N-(2,2,6,6-tetramethylpiperidin-4-yl)pyridazin-3-amine]	5.05 to 5.52
Oc1cc(-c2cn[nH]c2)ccc1-c1ccc(N2CC3(CCNC3)C2)nn1 [Cpd 459, 2-[6-(2,6-diazaspiro[3.4]oct-2-yl)pyridazin-3-yl]-5-(1H-pyrazol-4-yl)phenol]	5.05 to 5.52
CN(c1ccc(-c2ccc(-c3cn[nH]c3)nc2O)nn1)C1CC(C)(C)NC(C)(C)C1 [Cpd 460, 3-{6-[methyl(2,2,6,6-tetramethylpiperidin-4-yl)amino]pyridazin-3-yl}-6-(1H-pyrazol-4-yl)pyridin-2-ol]	5.05 to 5.52

Second part, the molecule after the results:

pIC50	Compound
≥ 7.00	CC1(C)CC(Oc2ccc(-c3ccc(-n4cc([N+](=O)[O-])cn4)cc3O)nn2)CC(C)(C)N1 [Cpd 423, 5-(4-nitro-1H-pyrazol-1-yl)-2-{6-[(2,2,6,6-tetramethylpiperidin-4-yl)oxy]pyridazin-3-yl}phenol]
6.30 to 7.00	CC1(C)CC(Oc2ccc(-c3cc(F)c(-c4cn[nH]c4)cc3F)nn2)CC(C)(C)N1 [Cpd 431, 3-[2,5-difluoro-4-(1H-pyrazol-4-yl)phenyl]-6-[(2,2,6,6-tetramethylpiperidin-4-yl)oxy]pyridazine]
6.00 to 6.30	CC1(C)CC(Oc2ccc(-c3ccc(-c4cn[nH]c4)cc3)nn2)CC(C)(C)N1 [Cpd 435, 3-[4-(1H-pyrazol-4-yl)phenyl]-6-[(2,2,6,6-tetramethylpiperidin-4-yl)oxy]pyridazine]
6.00 to 6.30	CC1CC(Oc2ccc(-c3ccc(-c4cn[nH]c4)cc3O)nn2)CC(C)N1 (stereo not drawn) [Cpd 436, 2-{6-[(2,6-dimethylpiperidin-4-yl)oxy]pyridazin-3-yl}-5-(1H-pyrazol-4-yl)phenol]
5.52 to 6.00	CC1(C)CC(Oc2ccc(-c3ccc(-c4cn[nH]c4)cc3F)nn2)CC(C)(C)N1 [Cpd 437, 3-[2-fluoro-4-(1H-pyrazol-4-yl)phenyl]-6-[(2,2,6,6-tetramethylpiperidin-4-yl)oxy]pyridazine]
5.52 to 6.00	Cn1cc(-c2csc(-c3ccc(OC4CC(C)(C)NC(C)(C)C4)nn3)c2)cn1 [Cpd 438, 3-[4-(1-methyl-1H-pyrazol-4-yl)thiophen-2-yl]-6-[(2,2,6,6-tetramethylpiperidin-4-yl)oxy]pyridazine]
5.05 to 5.52	CC1CC(Oc2ccc(-c3ccc(-n4cccn4)cc3O)nn2)CC(C)N1 (stereo not drawn) [Cpd 441, 2-{6-[(2,6-dimethylpiperidin-4-yl)oxy]pyridazin-3-yl}-5-(1H-pyrazol-1-yl)phenol]
5.05 to 5.52	Cn1cc2cc(-c3ccc(OC4CC(C)(C)NC(C)(C)C4)nn3)ccc2n1 [Cpd 443, 2-methyl-5-{6-[(2,2,6,6-tetramethylpiperidin-4-yl)oxy]pyridazin-3-yl}-2H-indazole]
5.05 to 5.52	COc1cc(Cl)ccc1-c1ccc(OC2CC(C)(C)NC(C)(C)C2)nn1 [Cpd 444, 3-(4-chloro-2-methoxyphenyl)-6-[(2,2,6,6-tetramethylpiperidin-4-yl)oxy]pyridazine]
5.05 to 5.52	CC1(C)CC(Oc2ccc(-c3ccc4nccn4c3)nn2)CC(C)(C)N1 [Cpd 446, 6-{6-[(2,2,6,6-tetramethylpiperidin-4-yl)oxy]pyridazin-3-yl}imidazo[1,2-a]pyridine]
5.05 to 5.52	CC1(C)CC(Oc2ccc(-c3ccc(-c4cn[nH]c4)s3)nn2)CC(C)(C)N1 [Cpd 448, 3-[5-(1H-pyrazol-4-yl)thiophen-2-yl]-6-[(2,2,6,6-tetramethylpiperidin-4-yl)oxy]pyridazine]
5.05 to 5.52	Cn1cc(-c2ccc(-c3ccc(OC4CC(C)(C)NC(C)(C)C4)nn3)s2)cn1 [Cpd 449, 3-[5-(1-methyl-1H-pyrazol-4-yl)thiophen-2-yl]-6-[(2,2,6,6-tetramethylpiperidin-4-yl)oxy]pyridazine]
5.05 to 5.52	CC1(C)CC(Oc2ccc(-c3cc(-c4cn[nH]c4)cs3)nn2)CC(C)(C)N1 [Cpd 450, 3-[4-(1H-pyrazol-4-yl)thiophen-2-yl]-6-[(2,2,6,6-tetramethylpiperidin-4-yl)oxy]pyridazine]
5.05 to 5.52	COc1cc(-n2cc([N+](=O)[O-])cn2)ccc1-c1ccc(OC2CC(C)(C)NC(C)(C)C2)nn1 [Cpd 454, 3-[2-methoxy-4-(4-nitro-1H-pyrazol-1-yl)phenyl]-6-[(2,2,6,6-tetramethylpiperidin-4-yl)oxy]pyridazine]
5.05 to 5.52	CC1(C)CC(Oc2ccc(-c3ccc(O)cc3O)nn2)CC(C)(C)N1 [Cpd 455, 4-{6-[(2,2,6,6-tetramethylpiperidin-4-yl)oxy]pyridazin-3-yl}benzene-1,3-diol]
5.05 to 5.52	CC1(C)CC(Oc2ccc(-c3nc(-c4cn[nH]c4)ncc3N)nn2)CC(C)(C)N1 [Cpd 457, 2-(1H-pyrazol-4-yl)-4-{6-[(2,2,6,6-tetramethylpiperidin-4-yl)oxy]pyridazin-3-yl}pyrimidin-5-amine]
5.05 to 5.52	CC1(C)CC(Oc2ccc(-c3c(F)cc(-c4cn[nH]c4)cc3F)nn2)CC(C)(C)N1 [Cpd 458, 3-[2,6-difluoro-4-(1H-pyrazol-4-yl)phenyl]-6-[(2,2,6,6-tetramethylpiperidin-4-yl)oxy]pyridazine]
5.05 to 5.52	CC1(C)CC(Oc2ccc(-c3ccc(-c4cn[nH]c4)nc3O)nn2)CC(C)(C)N1 [Cpd 461, 6-(1H-pyrazol-4-yl)-3-{6-[(2,2,6,6-tetramethylpiperidin-4-yl)oxy]pyridazin-3-yl}pyridin-2-ol]
